Test results published in patent US6410561B1, “Amide derivatives and nociceptin antagonists” (Japan Tobacco Inc., priority 1998, dated 2002).

Key:
[1] = system: Mice; experiment: Hot-plate test; type: in vivo; conditions: Mus musculus, 1 h, oral, 60 min after administration, 55.5°C, read-out: Hot-plate M.E.D. (minimum effective dose)
Description: Mice (Crj, ICR, 4-week-old, male) were placed on a hot-plate (temperature 55.5±0.5° C.) and the time until the mice jumped and tried to run away was recorded. The mice were grouped according to the time and body weight so that the groups were evenly membered. The test compound was suspended in a 0.5% methylcellulose (MC) solution and orally administered to mice. After 60 min, the mice were again placed on a hot-plate and the time until they licked the hindlimb or jumped and tried to run away was recorded. The significant difference from the group administered with solvent was analyzed with ANOVA followed by Dunnett two-tailed test.

[2] = target: T1, ORL-1 receptor (Homo sapiens, UniProt P41146); experiment: ORL1 receptor binding assay ([3H]nociceptin); conditions: for Ki: calculated from IC50 and Kd of [3H]nociceptin; for IC50: membrane of human ORL-1 expression cells, [3H]nociceptin 0.5 nM
T1 construct: expressed in transfected cells
T1 sequence (P41146 whole entry): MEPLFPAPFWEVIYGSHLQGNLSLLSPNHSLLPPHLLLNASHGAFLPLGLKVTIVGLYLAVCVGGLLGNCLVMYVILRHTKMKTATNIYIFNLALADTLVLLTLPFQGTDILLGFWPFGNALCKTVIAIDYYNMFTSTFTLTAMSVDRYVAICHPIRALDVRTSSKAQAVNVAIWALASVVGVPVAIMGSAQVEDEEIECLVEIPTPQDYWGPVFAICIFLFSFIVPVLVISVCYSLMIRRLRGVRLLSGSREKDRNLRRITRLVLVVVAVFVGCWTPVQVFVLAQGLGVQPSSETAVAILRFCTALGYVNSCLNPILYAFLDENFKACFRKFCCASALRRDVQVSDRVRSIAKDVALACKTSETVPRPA
Description: ORL1 Receptor Binding Assay
A cell membrane suspension obtained from human ORL-1 expression cells was adjusted with Tris buffer [50 mM Tris, 2 mM EDTA, 0.1 mM (p-Amidinophenyl)methanesulfonyl Fluoride Hydrochloride (p-APMSF), 2 mg/ml BSA] to membrane protein amount of about 25 μg/ml (2.5 μg/well). This was mixed with [^3H]nociceptin (diluted with Tris buffer to a final concentration of 0.5 nM) and test compound (diluted with Tris buffer to a final concentration of 10 nM-10 μM), and the mixture was incubated at room temperature for 60 min. The membrane was recovered on a G/F-B filter (Packard, Unifilter 96GF/B) using a cell harvester and the reaction was stopped. After washing 3 times, the filter was dried at 42° C. for 1 hr. A scintillation solution (Packard, microscint-20) was added and the radioactivity (Packard, Top count A9912V) was assayed.
(§1) The nonspecific binding was the binding in the presence of 1 μM nociceptin and the difference between the total binding and nonspecific binding was taken as the specific binding. IC50 was calculated from inhibition of specific binding at each concentration of the compound, and Ki value of the test compound was calculated from this value and Kd value of [^3H]nociceptin.

[3] = target: T2, μ receptor (Rattus norvegicus, UniProt P33535); experiment: μ receptor binding assay ([3H]DAMGO); conditions: for Ki: calculated from IC50 and Kd of [3H]DAMGO; for IC50: rat cerebrum membrane, [3H]DAMGO 1 nM
T2 construct: Rat cerebrum membrane standard sample; from tissue; host or cells: rat cerebrum membranes
T2 sequence (P33535 whole entry): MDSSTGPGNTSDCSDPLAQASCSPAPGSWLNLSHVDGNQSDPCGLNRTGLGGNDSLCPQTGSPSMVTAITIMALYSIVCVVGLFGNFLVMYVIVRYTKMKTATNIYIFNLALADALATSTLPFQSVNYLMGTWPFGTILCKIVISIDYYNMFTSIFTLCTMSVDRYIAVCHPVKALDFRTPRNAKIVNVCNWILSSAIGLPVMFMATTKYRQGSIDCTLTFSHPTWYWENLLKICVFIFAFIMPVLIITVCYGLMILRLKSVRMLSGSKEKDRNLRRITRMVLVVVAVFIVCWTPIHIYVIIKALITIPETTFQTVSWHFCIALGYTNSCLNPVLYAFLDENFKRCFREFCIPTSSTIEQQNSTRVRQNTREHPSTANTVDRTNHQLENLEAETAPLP
Description: Rat cerebrum membrane standard sample (final concentration 0.755 mg·protein/ml), [^3H]DAMGO (Try-D-Ala-Gly-NMe-Phe-Gly-ol) [diluted with Tris buffer (50 mM Tris-HCl, 0.1 mM p-APMSF, 2 mg/ml BSA (pH=7.4)) to a final concentration of 1 nM] and test compound (diluted with Tris buffer to a final concentration of 10 nM-10 μM) were mixed, and the mixture was incubated at room temperature for 90 min. The membrane was recovered on a G/F-B filter (same as above) using a cell harvester and the reaction was stopped. After washing 3 times, the filter was dried at 42° C. for 1 hr. A scintillation solution (same as above) was added and the radioactivity (same as above) was assayed.
as §1, with “10” for “1”, “naloxone” for “nociceptin”, “[^3H]DAMGO.” for “[^3H]nociceptin.”

[4] = system: allodynia model; experiment: Allodynia test (intrathecal nociceptin, tactile stimulation); type: in vivo, Mice; conditions: Mus musculus; mice, oral, 60 min before nociceptin 50 pg i.t.; score at 20 min; read-out: Allodynia M.E.D. (minimum effective dose)
Description: Mice (Crj, ICR, 4-week-old, male) were intrathecally administered with nociceptin (50 pg/5 μl) without anesthesia. For 20 min after administration and at 5 min intervals, an area from lateral region to tail of the mice was rubbed with a brush and the response of the mice was observed. The evaluation followed the criteria of 0; no change, 1; run or cry upon tactile stimulation, and 2; cry loud or dash away upon tactile stimulation. The test compound was suspended in a 0.5% MC solution and orally administered 60 min before nociceptin administration. The significant difference of the score of each administration group at 20 min after nociceptin administration from the group administered with solvent was analyzed with Mann-Whitny U-test.

| Structure (SMILES) | melting point [°C] | minimal effective dose [1] [mg/kg] | Ki [2] [nM] | IC50 [2] [nM] | Ki [3] [nM] | IC50 [3] [nM] | minimal effective dose [4] [mg/kg] |
| --- | --- | --- | --- | --- | --- | --- | --- |
| Cc1cc(N)c2cc(NC(=O)c3ccccc3COc3ccc(Cl)cc3Cl)ccc2n1.Cl [Example 2, N-(4-amino-2-methyl-6-quinolyl)-2-[(2,4-dichlorophenoxy)methyl]benzamide hydrochloride] | 262 | 1 | 4 | 70 | 497 | 1330 | 0.3 |
| Cc1cc(N)c2cc(NC(=O)c3ccccc3COc3ccc(Cl)c(Cl)c3)ccc2n1.Cl [Example 26, N-(4-amino-2-methyl-6-quinolyl)-2-[(3,4-dichlorophenoxy)methyl]benzamide hydrochloride] | 223 | 1 | 4 | 80 | 479 | 1220 | 0.3 |
| Cc1cc(N)c2cc(NC(=O)c3ccccc3COc3cccc([N+](=O)[O-])c3)ccc2n1.Cl [Example 19, N-(4-amino-2-methyl-6-quinolyl)-2-[(3-nitrophenoxy)methyl]benzamide hydrochloride] | 245 | 3 | 9 | 160 | 388 | 1030 | 0.1 |
| Cc1cc(N)c2cc(NC(=O)c3ccccc3COc3ccc(Cl)cc3)ccc2n1.Cl [Example 11, N-(4-amino-2-methyl-6-quinolyl)-2-[(4-chlorophenoxy)methyl]benzamide hydrochloride] | 245 | 3 | 3 | 60 | 424 | 1120 | 0.3 |
| Cc1cc(N)c2cc(NC(=O)c3ccccc3COc3ccc(C#N)cc3)ccc2n1.Cl [Example 16, N-(4-amino-2-methyl-6-quinolyl)-2-[(4-cyanophenoxy)methyl]benzamide hydrochloride] | 286 | 3 | 6 | 110 | 259 | 690 | 0.1 |
| CCc1ccc(OCc2ccccc2C(=O)Nc2ccc3nc(C)cc(N)c3c2)c(Cl)c1.Cl [Example 89, N-(4-amino-2-methyl-6-quinolyl)-2-[(2-chloro-4-ethylphenoxy)methyl]benzamide hydrochloride] | 245.9 | 1 | 6 | 130 | 548 | 1460 | 0.3 |
